Laboratory results taken from patent publication US5030760A, “Tetrahydrophthalimides, and their production and use” (Sumitomo Chemical Company, Ltd., priority 1981, dated 1991).

Tests used:
[1] = test system: rice plant; test: Test Example 7, flooded paddy pot dripping, phytotoxicity to rice plant; assay type: in vivo; details: 3 weeks; note: ranges in brackets are in %
Description: (§1) The application of the tetrahydrophthalimides (I) as herbicides will be illustratively shown in the following Examples wherein the phytotoxicity to cultivated plants and the herbicidal activity on weeds were evaluated as follows: the aerial parts of the test plants were cut off and weighed (fresh weight); the percentage of the fresh weight of the treated plant to that of the untreated plant was calculated with the latter fresh weight taken as 100; and the crop damage and the herbicidal activity were evaluated by the standard given in the table below. The rating values of phytotoxicity, 0 and 1, and those of herbicidal effect, 5 and 4, are generally regarded as satisfactory to protect cultivated plants and control weeds, respectively. The rating values in the paddy field test alone were calculated from the dry weight of the test plants.
(§2) Wagner's pots (1/5000 are) were filled with paddy field soil and water was poured therein to make a flooded condition. Rice seedlings of the 3-leaf stage were transplanted and tubers of slender spikerush and arrowhead and the seeds of barnyardgrass, monochoria and broad-leaved weed were sowed therein and grown for 5 days. When germination occurs, a designed amount of the test compound formulated into an emulsifiable concentrate according to Preparation Example 2 was applied to the pots by dripping. The test plants were grown for a further 3 weeks, and herbicidal activity and phytotoxicity were examined. The herbicidal activity was evaluated in figures ranging from 0 to 5. The phytotoxicity to the crop plants was also indicated on the same standard as that of the herbicidal activity.

[2] = test system: barnyardgrass; test: Test Example 7, flooded paddy pot dripping, herbicidal activity; assay type: in vivo, Echinochloa crus-galli; details: 3 weeks; note: ranges in brackets are in %
Description: as §1, §2

[3] = test system: monochoria; test: as above; assay type: in vivo, Monochoria vaginalis; details: 3 weeks; note: ranges in brackets are in %
Description: as §1, §2

[4] = test system: broad-leaved weed; test: as above; assay type: in vivo; details: 3 weeks; note: ranges in brackets are in %
Description: as §1, §2

[5] = test system: slender spikerush; test: as above; assay type: in vivo, Eleocharis acicularis; details: 3 weeks; note: ranges in brackets are in %
Description: as §1, §2

[6] = test system: arrowhead; test: as above; assay type: in vivo, Sagittaria pygmaea; details: 3 weeks; note: ranges in brackets are in %
Description: as §1, §2

[7] = test system: corn; test: Test Example 1, foliar treatment, phytotoxicity to corn; assay type: in vivo; details: 3 weeks; note: ranges in brackets are in %
Description: as §1
(§3) Plastic beakers (diameter, 10 cm; height, 10 cm) were filled with upland field soil, and the seeds of corn, barnyardgrass, wild oat, wild mustard and velvetleaf were separately sown in the beakers and grown for 2 weeks in the greenhouse. A designed amount of the test compound was sprayed to the foliage of the test plants by means of a small hand sprayer. After the spraying, the test plants were further grown for 3 weeks in the greenhouse, and herbicidal activity was examined. In this foliar treatment, the test compounds were formulated into an emulsifiable concentrate according to Preparation Example 2 and applied at a spray volume of 5 liters per are by dispersing it in water with the addition of a spreading agent.

[8] = test system: barnyardgrass; test: Test Example 1, foliar treatment, herbicidal activity; assay type: in vivo, Echinochloa crus-galli; details: 3 weeks; note: ranges in brackets are in %
Description: as §1, §3

[9] = test system: wild oat; test: as above; assay type: in vivo, Avena fatua; details: 3 weeks; note: ranges in brackets are in %
Description: as §1, §3

[10] = test system: wild mustard; test: as above; assay type: in vivo, Brassica kaber; details: 3 weeks
Description: as §1, §3

[11] = test system: velvetleaf; test: as above; assay type: in vivo, Abutilon theophrasti; details: 3 weeks
Description: as §1, §3

[12] = test system: corn; test: Test Example 3, soil surface spraying, phytotoxicity to corn; assay type: in vivo; details: 20 days; note: ranges in brackets are in %
Description: as §1
(§4) Plastic trays (35 cm×25 cm×15 cm) were filled with upland field soil, and the seeds of tall morningglory, velvetleaf and sicklepod and the seeds of corn were sown therein. A designed amount of the test compounds formulated into a wettable powder according to Preparation Example 1 was dispersed in water and applied by spraying at a spray volume of 5 liters per are to the whole surface of the soil. After the spraying, the test plants were placed in a greenhouse and grown for 20 days, and herbicidal activity and phytotoxicity were examined.

[13] = test system: tall morningglory; test: Test Example 3, soil surface spraying, herbicidal activity; assay type: in vivo, Ipomoea purpurea; details: 20 days; note: ranges in brackets are in %
Description: as §1, §4

[14] = test system: sicklepod; test: as above; assay type: in vivo, Cassia obtusifolia; details: 20 days; note: ranges in brackets are in %
Description: as §1, §4

[15] = test system: velvetleaf; test: as above; assay type: in vivo, Abutilon theophrasti; details: 20 days
Description: as §1, §4
Throughout, for Herbicidal activity, Velvetleaf: ranges in brackets are in %.

SMILES | Phytotoxicity, Rice plant ([1]; 1.25 g/are) | Phytotoxicity, Rice plant ([1]; 2.5 g/are) | Phytotoxicity, Rice plant ([1]; 5 g/are) | Herbicidal activity, Barnyardgrass ([2]; 1.25 g/are) | Herbicidal activity, Barnyardgrass ([2]; 2.5 g/are) | Herbicidal activity, Barnyardgrass ([2]; 5 g/are) | Herbicidal activity, Monochoria ([3]; 1.25 g/are) | Herbicidal activity, Monochoria ([3]; 2.5 g/are) | Herbicidal activity, Monochoria ([3]; 5 g/are) | Herbicidal activity, Broad-leaved weed ([4]; 1.25 g/are) | Herbicidal activity, Broad-leaved weed ([4]; 2.5 g/are) | Herbicidal activity, Broad-leaved weed ([4]; 5 g/are) | Herbicidal activity, Slender spikerush ([5]; 1.25 g/are) | Herbicidal activity, Slender spikerush ([5]; 2.5 g/are) | Herbicidal activity, Slender spikerush ([5]; 5 g/are) | Herbicidal activity, Allowhead ([6]; 1.25 g/are) | Herbicidal activity, Allowhead ([6]; 2.5 g/are) | Herbicidal activity, Allowhead ([6]; 5 g/are) | Phytotoxicity, Corn ([7]; 1.25 g/are) | Phytotoxicity, Corn ([7]; 5 g/are) | also measured
CCCCCCCCOc1cc(N2C(=O)C3=C(CCCC3)C2=O)c(F)cc1Cl [Compound No. 10] | 0 (0-9) | 0 (0-9) | 0 (0-9) | 3 (50-69) | 4 (70-89) | 5 (90-100) | 5 (90-100) | 5 (90-100) | 5 (90-100) | 5 (90-100) | 5 (90-100) | 5 (90-100) | 3 (50-69) | 3 (50-69) | 4 (70-89) | 3 (50-69) | 4 (70-89) | 4 (70-89) |  |  | 
CCC(C)Oc1cc(N2C(=O)C3=C(CCCC3)C2=O)c(F)cc1Cl (stereo not drawn) [compound 4] |  |  |  |  |  |  |  |  |  |  |  |  |  |  |  |  |  |  | 0 (100) | 1 (90-99) | Herbicidal activity, Barnyardgrass ([8]; 1.25 g/are): 1 (41-60); Herbicidal activity, Barnyardgrass ([8]; 5 g/are): 5 (0); Herbicidal activity, Wild cat ([9]; 1.25 g/are): 2 (21-40); Herbicidal activity, Wild cat ([9]; 5 g/are): 5 (0); Herbicidal activity, Wild mustard ([10]; 1.25 g/are): 4 (1-10); Herbicidal activity, Wild mustard ([10]; 5 g/are): 5 (0); Herbicidal activity, Velvetleaf ([11]; 1.25 g/are): 5 (0); Herbicidal activity, Velvetleaf ([11]; 5 g/are): 5 (0); Phytotoxicity, Corn ([12]; 5 g/are): 0 (100); Phytotoxicity, Corn ([12]; 10 g/are): 0 (100); Herbicidal activity, Tall morningglory ([13]; 5 g/are): 4 (1-10); Herbicidal activity, Tall morningglory ([13]; 10 g/are): 5 (0); Herbicidal activity, Sicklepod ([14]; 5 g/are): 4 (1-10); Herbicidal activity, Sicklepod ([14]; 10 g/are): 4 (1-10); Herbicidal activity, Velvetleaf ([15]; 5 g/are): 5 (0); Herbicidal activity, Velvetleaf ([15]; 10 g/are): 5 (0)
CC(C)COc1cc(N2C(=O)C3=C(CCCC3)C2=O)c(F)cc1Cl [compound 5] |  |  |  |  |  |  |  |  |  |  |  |  |  |  |  |  |  |  | 0 (100) | 0 (100) | Herbicidal activity, Barnyardgrass ([8]; 1.25 g/are): 2 (21-40); Herbicidal activity, Barnyardgrass ([8]; 5 g/are): 4 (1-10); Herbicidal activity, Wild cat ([9]; 1.25 g/are): 1 (41-60); Herbicidal activity, Wild cat ([9]; 5 g/are): 4 (1-10); Herbicidal activity, Wild mustard ([10]; 1.25 g/are): 3 (11-20); Herbicidal activity, Wild mustard ([10]; 5 g/are): 5 (0); Herbicidal activity, Velvetleaf ([11]; 1.25 g/are): 5 (0); Herbicidal activity, Velvetleaf ([11]; 5 g/are): 5 (0); Phytotoxicity, Corn ([12]; 5 g/are): 0 (100); Phytotoxicity, Corn ([12]; 10 g/are): 0 (100); Herbicidal activity, Tall morningglory ([13]; 5 g/are): 4 (1-10); Herbicidal activity, Tall morningglory ([13]; 10 g/are): 5 (0); Herbicidal activity, Sicklepod ([14]; 5 g/are): 4 (1-10); Herbicidal activity, Sicklepod ([14]; 10 g/are): 4 (1-10); Herbicidal activity, Velvetleaf ([15]; 5 g/are): 5 (0); Herbicidal activity, Velvetleaf ([15]; 10 g/are): 5 (0)
CCCCOc1cc(N2C(=O)C3=C(CCCC3)C2=O)c(F)cc1Cl [compound 6] |  |  |  |  |  |  |  |  |  |  |  |  |  |  |  |  |  |  | 0 (100) | 0 (100) | Herbicidal activity, Barnyardgrass ([8]; 1.25 g/are): 3 (11-20); Herbicidal activity, Barnyardgrass ([8]; 5 g/are): 4 (1-10); Herbicidal activity, Wild cat ([9]; 1.25 g/are): 1 (41-60); Herbicidal activity, Wild cat ([9]; 5 g/are): 3 (11-20); Herbicidal activity, Wild mustard ([10]; 1.25 g/are): 4 (1-10); Herbicidal activity, Wild mustard ([10]; 5 g/are): 5 (0); Herbicidal activity, Velvetleaf ([11]; 1.25 g/are): 5 (0); Herbicidal activity, Velvetleaf ([11]; 5 g/are): 5 (0); Phytotoxicity, Corn ([12]; 5 g/are): 0 (100); Phytotoxicity, Corn ([12]; 10 g/are): 0 (100); Herbicidal activity, Tall morningglory ([13]; 5 g/are): 4 (1-10); Herbicidal activity, Tall morningglory ([13]; 10 g/are): 4 (1-10); Herbicidal activity, Sicklepod ([14]; 5 g/are): 4 (1-10); Herbicidal activity, Sicklepod ([14]; 10 g/are): 4 (1-10); Herbicidal activity, Velvetleaf ([15]; 5 g/are): 5 (0); Herbicidal activity, Velvetleaf ([15]; 10 g/are): 5 (0)
CCCCCCOc1cc(N2C(=O)C3=C(CCCC3)C2=O)c(F)cc1Cl [compound 8] | 0 (0-9) | 0 (0-9) | 0 (0-9) | 4 (70-89) | 5 (90-100) | 5 (90-100) | 5 (90-100) | 5 (90-100) | 5 (90-100) | 5 (90-100) | 5 (90-100) | 5 (90-100) | 4 (70-89) | 4 (70-89) | 5 (90-100) | 4 (70-89) | 5 (90-100) | 5 (90-100) |  |  | 
CCCCCCCOc1cc(N2C(=O)C3=C(CCCC3)C2=O)c(F)cc1Cl [compound 9] | 0 (0-9) | 0 (0-9) | 0 (0-9) | 4 (70-89) | 4 (70-89) | 5 (90-100) | 5 (90-100) | 5 (90-100) | 5 (90-100) | 5 (90-100) | 5 (90-100) | 5 (90-100) | 3 (50-69) | 4 (70-89) | 4 (70-89) | 3 (50-69) | 4 (70-89) | 4 (70-89) |  |  | 
CC(C)CCOc1cc(N2C(=O)C3=C(CCCC3)C2=O)c(F)cc1Cl [compound 11] | 0 (0-9) | 0 (0-9) | 0 (0-9) | 4 (70-89) | 5 (90-100) | 5 (90-100) | 5 (90-100) | 5 (90-100) | 5 (90-100) | 5 (90-100) | 5 (90-100) | 5 (90-100) | 4 (70-89) | 4 (70-89) | 5 (90-100) | 3 (50-69) | 4 (70-89) | 5 (90-100) |  |  | 
